The record followed here is patent US20240199561A1, “INHIBITORS OF DYRK AND PIM” (COLD SPRING HARBOR LABORATORY, priority 2021, published 2024).

Entries after “also recorded” stand apart in the source; their conditions may differ.

One test addresses PIM1 (Homo sapiens (Human), UniProt P11309). Kind of test: Kinase assay, PIM1 IC50. The class given is biochemical.
In another test the target is DYRK1A (Homo sapiens (Human), UniProt Q13627). As to the kind of experiment: Radiolabelled kinase assay (IC50 determination), DYRK1A. Conditions: read-out: DYRK1A IC50 (nm).
Test [1] relates to U87MG cells. As to the kind of experiment: Neurosphere proliferation assay, U87MG. Type of test: cell-based. Conditions: for proliferation of U87MG cells, assessed by neurosphere diameter: 5 μM, 10 μM, and 20 μM, compared to DMSO vehicle control; for neurosphere proliferation: U87MG DYRK1A knockouts rescued with point mutant F238LM240R, compared to DYRK1A wild-type treated cells; for neurosphere proliferation (neurosphere numbers and size): U87MG, serum free conditions with growth factors. The protocol: (§1) Neurospheres are free-floating 3-D clusters of neural stem cells that are grown in serum-free media supplemented with growth factors. These cells have the capacity to self-renew and differentiate into cell types present within the tumor of origin. They are also responsible for tumor propagation, recurrence and resistance to traditional treatments. Neurosphere assays are commonly used to uncover more relevant brain tumor biology than traditional culture conditions. Several parameters can be assayed including neurosphere number and size. Neurosphere formation remained a significant predictor of clinical outcome in GBM, independent of the Ki67 labeling index. […] Self-renewal is the ability of a single cell to form a neurosphere.
(§2) Two EGFR-dependent GBM cell-lines, U87MG and LN229 were grown under serum free conditions with growth factors to induce the formation of neurospheres. Their stemness was confirmed using a western blot to detect stem cell markers. […] This reaffirmed the fact that DYRK1A plays a crucial role in regulating neurosphere self-renewal in GBM.
Compounds of Formula I therefore have an anticancer potential and inhibit proliferation of cells with a cancer phenotype.

Test [2] relates to U87MG cells. As to the kind of experiment: Invasion assay (Matrigel), U87MG. The class given is cell-based. As to conditions: for ability of the cells to invade the Matrigel chamber / cell invasion (cells crossing matrigel membrane): U87MG; for invasion: U87MG DYRK1A knockouts rescued with point mutant F238LM240R, compared to DYRK1A wild-type treated cells; for cell invasion (cells crossing matrigel membrane): 5 μM and 10 μM, relative to DMSO vehicle. An excerpt: (§3) The Invasion Assay provides an in vitro system to study cell invasion of malignant and normal cells. Specific applications include assessment of the metastatic potential of tumor cells. Invasion chambers coated with Corning® Matrigel® matrix provide cells with the conditions that allow assessment of their invasive capacity in vitro. Corning Matrigel matrix serves as a reconstituted basement membrane in vitro, occluding the pores of the membrane and blocking non-invasive cells from migrating through the membrane. In contrast, invasive cells (malignant and non-malignant) secrete proteases that enzymatically degrade the Corning Matrigel matrix and enable invasion through the membrane pores.
(§4) In order to assess whether DYRK1A plays a role in cell invasion, we performed an invasion assay using the two GBM cell lines U87MG and LN229. […] Inhibition of DYRK1A using FC2 and FC3 can also decrease the metastatic potential of GBM cells, thus making them good therapeutic candidates for EGFR-dependent GBM.

The subject of test [3] is LN229. As to the kind of experiment: Invasion assay (Matrigel), LN229. The class given is cell-based.
Text: as §3, §4

For test [4], the target named is panel of 140 different kinases. As to the kind of experiment: Panel of 140 different kinases. Type of test: biochemical.
Test [5] addresses DYRK1A point mutants (Homo sapiens, UniProt Q13627, F238L/M240R). Kind of test: In-vitro radiolabeled kinase assays against DYRK1A point mutants. As to conditions: F238LM240R. Type of test: biochemical. The text has this:
(§5) Kinase domains contain a gatekeeper residue that partially or fully blocks a hydrophobic region deep in the ATP binding pocket. The gatekeeper residue contributes to the selectivity of kinases for small molecule inhibitors. Based on the DYRK1A crystal structure with FC3 and sequence alignment, the gatekeeper residue in DYRK1A is Phe238 which is replaced by a smaller […] in case of PIM1 and other PIM kinases. Similarly, Met240, two residues after the gatekeeper residue was very unique to DYRK1A. Another interesting residue was Ser241 which was conserved among DYRKs. Point mutants of the gatekeeper residue (F238L), Met240 (M240R), […] and a double mutant (F238LM240R) were created to evaluate if the point mutants show resistance towards FC2 and FC3.
(§6) In-vitro radiolabeled kinase assays were used to determine the IC50s of FC2 and FC3 against the DYRK1A point mutants. There was no change in the Km or Vmax of the point mutants of DYRK1A and their activity was similar to wild-type DYRK1A.

The target of test [6] is DYRK1A point mutants (Homo sapiens, UniProt Q13627, F238L). The test is described as above. Type of test: biochemical. Conditions: F238L.
Text: as §5, §6

The target in test [7] is DYRK1A point mutants (Homo sapiens, UniProt Q13627, M240R). The test is described as above. Type of test: biochemical. As to conditions: M240R.
Text: as §5, §6

The subject of test [8] is LN229. Kind of test: Neurosphere proliferation assay, LN229. Conditions: LN229, serum free conditions with growth factors. The class given is cell-based. As for the experimental part: as §1, §2
For test [9], the target named is DYRK1A point mutants (Homo sapiens, UniProt Q13627, S242A). As to the kind of experiment: In-vitro radiolabeled kinase assays against DYRK1A point mutants. As to conditions: S242A. Type of test: biochemical.
Text: as §5, §6

Chain of PIM1 (P11309 whole entry): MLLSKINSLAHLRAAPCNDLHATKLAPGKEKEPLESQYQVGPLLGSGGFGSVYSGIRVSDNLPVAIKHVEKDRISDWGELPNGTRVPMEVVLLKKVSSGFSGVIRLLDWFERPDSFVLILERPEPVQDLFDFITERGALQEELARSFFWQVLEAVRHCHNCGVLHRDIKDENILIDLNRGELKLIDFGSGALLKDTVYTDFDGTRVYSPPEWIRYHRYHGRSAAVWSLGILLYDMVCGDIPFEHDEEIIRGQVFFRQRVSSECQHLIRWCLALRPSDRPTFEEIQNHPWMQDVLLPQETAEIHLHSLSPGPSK

Consider `O=C(c1nc2cc(O)c(O)cc2s1)c1cc(O)c(O)cc1O` [FC-63], for which the concentration for half-maximal inhibition (IC50) (usually the concentration that gives 50% inhibition) against PIM1 was found to be 0.238 µM.
Regarding `COc1cc(O)c(C(=O)c2nc3cc(O)ccc3s2)cc1O` [FC-6, (2,5-Dihydroxy-4-methoxyphenyl)(5-hydroxybenzo[d]thiazol-2-yl)methanone], the figures for the IC50 at PIM1 and at DYRK1A were 0.552 µM and 0.18 µM, respectively.
`S=C1Cc2ccc(-c3nc4cc5c(cc4s3)OCO5)cc2N1` [FC-208]: on DYRK1A, the concentration for half-maximal inhibition (IC50) worked out at 0.56 µM.
As for `COc1cc(O)c(C(=O)c2nc3cc(O)c(O)cc3s2)cc1O` [FC-4, (2,5-Dihydroxy-4-methoxyphenyl)(5,6-dihydroxybenzo[d]thiazol-2-yl)methanone], the 50% inhibitory concentration (IC50) is 0.174 µM on PIM1 and 0.087 µM on DYRK1A.
Take `Oc1ccc(-c2nc3cc4cn[nH]c4cc3s2)cc1O` [FC-204, 4-(1H-thiazolo[4,5-f]-indazol-6-yl)benzene-1,2-diol]: on DYRK1A, the IC50 stood at 0.057 µM.
On the same count and under the same terms, to `COc1ccc(O)c2nc(C(=O)c3ccc(O)c(O)c3)sc12` [FC-7A, (3,4-dihydroxyphenyl)(4-hydroxy-7-methoxybenzo[d]thiazol-2-yl)methanone] belongs 0.56 µM; to `COc1ccc(-c2nc3cc4cn[nH]c4cc3s2)cc1OC` [FC-205, 6-(3,4-dimethoxyphenyl)-1H-thiazolo[4,5-f]-indazole], 0.206 µM; to `Oc1ccc(-c2nc3ccc4[nH]ncc4c3s2)cc1O` [FC-196, 4-(6H-thiazolo[5,4-e]indazol-2-yl)benzene-1,2-diol], 0.5 µM.
On to `Oc1ccc(-c2nc3ccc4nn[nH]c4c3s2)cc1O` [FC-10, 4-(1H-thiazolo[5′,4′:3,4]benzo[1,2-d][1,2,3]triazol-7-yl)benzene-1,2-diol], for which the half-inhibitory concentration (IC50) on DYRK1A was 0.11 µM.
For the compound `CCN1/C(=C/C(C)=O)Sc2ccc(O)cc21` [INDY, reference compound], the “proliferation of U87MG cells, assessed by neurosphere diameter” value (from here on “proliferation of U87MG cells, assessed”) in the test with U87MG cells [1] is listed as “did not inhibit proliferation”.
Consider `Oc1ccc(-c2nc3cc4c(cc3s2)OCO4)cc1O` [FC-2, 4-([1,3]Dioxolo[4′,5′:4,5]benzo[1,2-d]thiazol-6-yl)benzene-1,2-diol], for which the “PIM1 IC50 (nm)” value on PIM1 is recorded as “Micromolar inhibition”. Also, in the test on U87MG cells [2], the “ability of the cells to invade the Matrigel chamber” value (shortened to “ability of the cells”) is recorded as “impaired the ability of the cells to invade”, the invasion result is on record as “did not show a decrease” and the “cell invasion (cells crossing matrigel membrane)” value is on record as “significantly inhibited cell invasion; also recorded: reduces the invasive ability”. Further, the “ability of the cells” value in the test on LN229 [3] is on record as “impaired the ability of the cells to invade”. Also, the kinase specificity result in test [4] is on record as “very specific to the DYRK family of kinases”. Also, the IC50 at DYRK1A stood at 0.019 µM. Moreover, the “IC50 against DYRK1A double mutant versus wild-type” value against DYRK1A point mutants [5] is listed as “even higher”. Besides, the “IC50 against DYRK1A point mutant versus wild-type” value on DYRK1A point mutants [6] is listed as “significantly higher”. For the same compound, the “IC50 against DYRK1A point mutant versus wild-type” value at DYRK1A point mutants [7] is “significantly higher”. For the same compound, the “neurosphere proliferation (neurosphere numbers and size)” value in the test with LN229 [8] was “significant decrease in neurosphere proliferation”. Also, in the test on U87MG cells [1], the “proliferation of U87MG cells, assessed” value is “significantly inhibited proliferation”; the neurosphere proliferation result is “did not show a decrease”; the “neurosphere proliferation (neurosphere numbers and size)” value is on record as “significant decrease in neurosphere proliferation”.
On to `O=C(c1ccc(O)c(O)c1)c1nc2c(O)ccc(O)c2s1` [FC-7, (4,7-Dihydroxybenzo[d]thiazol-2-yl)(3,4-dihydroxyphenyl)methanone], for which the “PIM1 IC50 (nm)” value at PIM1 was “Micromolar inhibition”. Besides, the IC50 on DYRK1A is 0.229 µM.
`Oc1cc2nc(-c3ccc(O)c(O)c3O)sc2cc1O` [FC-5]: the figures for the concentration for half-maximal inhibition (IC50) against PIM1 and on DYRK1A were 0.144 µM and 0.095 µM, respectively.
On to `Oc1ccc(-c2nc3c(ccc4[nH]cnc43)s2)cc1O` [FC-14, 4-(6H-imidazo[4′,5′:5,6]benzo[1,2-d]thiazol-2-yl)benzene-1,2-diol], for which, at DYRK1A, the half-maximal inhibitory concentration (IC50) was determined as 0.4 µM.
For `COc1ccc(C(=O)c2nc3cc(O)c(O)cc3s2)cc1F` [FC-8, (5,6-Dihydroxybenzo[d]thiazol-2-yl)(3-fluoro-4-methoxyphenyl)methanone], the IC50 against PIM1 came to 0.317 µM; at DYRK1A, 0.238 µM.
With `O=[N+]([O-])c1ccc(O)cc1-c1nc2cc3c(cc2s1)OCO3` [FC-115], at PIM1, the “PIM1 IC50 (nm)” value is recorded as “No Inhibition”. For the same compound, the IC50 on DYRK1A was 0.524 µM.
On to `O=C(c1ccc(O)c(O)c1)c1nc2cc(O)c(O)cc2s1` [FC-3, (5,6-Dihydroxybenzo[d]thiazol-2-yl)(3,4-dihydroxyphenyl)methanone], for which the “PIM1 IC50 (nm)” value on PIM1 was “Micromolar inhibition”. Also, in the test with U87MG cells [2], the “ability of the cells” value is “impaired the ability of the cells to invade”, the invasion result is “did not show a decrease” and the “cell invasion (cells crossing matrigel membrane)” value was “significantly inhibited cell invasion; also recorded: reduces the invasive ability”. Moreover, in the test with LN229 [3], the “ability of the cells” value is “impaired the ability of the cells to invade”. In test [4], the kinase specificity result was “very specific to the DYRK family of kinases”. Besides, the IC50 at DYRK1A came to 0.053 µM. Further, the “IC50 against DYRK1A double mutant versus wild-type” value against DYRK1A point mutants [5] is reported as “even higher”. Moreover, on DYRK1A point mutants [6], the “IC50 against DYRK1A point mutant versus wild-type” value is “significantly higher”. Moreover, on DYRK1A point mutants [7], the “IC50 against DYRK1A point mutant versus wild-type” value was “significantly higher”. The “IC50 against DYRK1A point mutant versus wild-type” value against DYRK1A point mutants [9] is on record as “significantly higher”. In addition, the “neurosphere proliferation (neurosphere numbers and size)” value with LN229 [8] is on record as “significant decrease in neurosphere proliferation”. For the same compound, in the test on U87MG cells [1], the “proliferation of U87MG cells, assessed” value is recorded as “significantly inhibited proliferation”; the neurosphere proliferation result was “did not show a decrease”; the “neurosphere proliferation (neurosphere numbers and size)” value is reported as “significant decrease in neurosphere proliferation”.
